Assay results published in patent EP0617288B1, “Long emission wavelength chemiluminescent compounds and their use in test assays” (Novartis AG, priority 1993, dated 1994).

Key:
[1] = Light emission spectra by Fast Spectral Scanning System (FSSS); type: physicochemical; conditions: for emission spectrum peak: figure legends FIGS. 2A-2E, 3A-3J; for Emission Max: in 0.5 ml acetonitrile, Flashing Reagent #1 and #2, maximum could vary by 0-4 nm between determinations; for Range: spectral region with signal intensity of above 5% of peak height
Experimental: The light emission spectra of LBAC's and the reference acridinium esters were determined by a Fast Spectral Scanning System (FSSS) of Photo Research (a division of Kollmorgen Corp) of Burbank, CA, U.S.A. The experiment was carried out in a dark room. Each sample was dissolved in HPLC grade acetonitrile at the concentration of 1 mg/ml or higher and diluted with the same solvent to obtain the sample solution in the concentration specified. A typical determination utilized 10 to 100 ug of each compound, with the exception of the angular benz[a]acridinium ester (2 mg), separately or mixed together in 0.5 ml acetonitrile contained in 13 x 100 mm borosilicate test tube. The tube was placed on a tube rack raised to a proper height. The FSSS optical head was placed in front of the tube at close distance and with its lens focused on the liquid in the tube. The sample solution was first treated with 0.35 ml of the Flashing Reagent #1 (Ciba Corning Diagnostics) containing 0.1 N HNO3 and 0.1% H2O2. […] The light which was generated instantaneously following the addition of the Reagent #2 was recorded by FSSS for 4 seconds except for 2-MeO-LEAE-Imidate which was recorded for 30 seconds starting from split second before the Reagent #2 was added.
Recorded emission spectra are shown in FIGS. 2A-2E, 3A-3J, and 4A-4D. FIGS. 2A-2E and 3A-3J show individual emission spectra of chemiluminescent compounds including an acridinium ring system and compounds including a benzacridinium ring system. […] The major portions of the original constituting spectra which remained unchanged were indeed non-overlapping. These important physical characteristics fulfill the prerequisite for two or more subclasses of chemiluminescent compounds to be utilized in test assays for detecting and/or quantitating at least two substances in a test sample, and particularly to multianalyte clinical diagnostic assays.

[2] = Kinetic study on light emission (time course up to 10 seconds); type: physicochemical; conditions: normalized to 10 seconds
Experimental: A time course study over a period of up to 10 seconds was conducted to determine these percentages, by flashing the compounds and normalizing all the signals collected for different lengths of time to that of 10 seconds.

| Compound | emission spectrum peak [1] | Emission Max [1] | Range [1] | difference of the emission maxima ([1]; versus acridinium esters) | Percent signal released over different lengths of time ([2]; 0.5 s) [%] | Percent signal released over different lengths of time ([2]; 1.0 s) [%] | Percent signal released over different lengths of time ([2]; 2.0 s) [%] | Percent signal released over different lengths of time ([2]; 4.0 s) [%] | Percent signal released over different lengths of time ([2]; 6.0 s) [%] | Percent signal released over different lengths of time ([2]; 10.0 s) [%] |
| --- | --- | --- | --- | --- | --- | --- | --- | --- | --- | --- |
| COc1ccc2c(c1)c(C(=O)Oc1c(C)cc(C(=O)OCc3ccccc3)cc1C)c1cc3ccccc3cc1[n+]2C [2-MeO-LEAE-Bz, (4-Benzyloxycarbonyl-2,6-dimethyl)phenyl 2-Methoxy-5-methyl-benz[b]acridinium-12-carboxylate Fluorosulfonate] | ≈ 550 nm | 550 nm | 510-700 nm | – | 16 | 42 | 65 | 83 | 92 | 100 |
| COc1ccc2c(c1)c(C(=O)Oc1c(C)cc(C(=O)ON3C(=O)CCC3=O)cc1C)c1cc3ccccc3cc1[n+]2CCS(=O)(=O)[O-] [2-MeO-NSE-LEAE-NHS, (2,6-Dimethyl-4-N-succinimidyloxycarbonyl)phenyl 2-Methoxy-5-(2-sulfoethyl)-benz[b]acridinium-12-carboxylate] | ≈ 546 nm | 546 nm | 500-700 nm | – | 22 | 58 | 79 | 90 | 96 | 100 |
| Cc1cc(C(=O)ON2C(=O)CCC2=O)cc(C)c1OC(=O)c1c2cc(OCC[N+](C)(C)C)ccc2[n+](C)c2cc3ccccc3cc12 [2-QAE-LEAE-NHS, (2,6-Dimethyl-4-succinimidyloxycarbonyl)phenyl 5-Methyl-2-(trimethylammonium)ethoxy-benz[b]acridinium-12-carboxylate Difluorosulfonate] | ≈ 550 nm | 550 nm | 510-700 nm | – | 9 | 37 | 59 | 76 | 88 | 100 |
| (4-Benzyloxycarbonyl-2,6-diisopropyl)phenyl 10-Methyl-acridinium-9-carboxylate Fluorosulfonate [DIPAE-Bz, reference compound] | ≈ 428 nm | 426 nm | 405-520 nm | – | 14 | 64 | 89 | 97 | 98 | 100 |
| [2,6-Dimethyl-4-(2-methoxyiminoethyl)]phenyl 2-Methoxy-5-methyl-benz[b]acridinium-12-carboxylate Dichloride [2-MeO-LEAE-Imidate] | ≈ 550 nm | 550 nm | 500-710 nm | – | 6 | 23 | 40 | 59 | 76 | 100 |

Continued, in another order:

| emission spectrum peak [1] | Emission Max [1] | Range [1] | difference of the emission maxima ([1]; versus acridinium esters) | Compound | Percent signal released over different lengths of time ([2]; 0.5 s) [%] | Percent signal released over different lengths of time ([2]; 1.0 s) [%] | Percent signal released over different lengths of time ([2]; 2.0 s) [%] | Percent signal released over different lengths of time ([2]; 4.0 s) [%] | Percent signal released over different lengths of time ([2]; 6.0 s) [%] | Percent signal released over different lengths of time ([2]; 10.0 s) [%] |
| --- | --- | --- | --- | --- | --- | --- | --- | --- | --- | --- |
| ≈ 508 nm | 508 nm | 470-660 nm | – | CCOc1ccc2c(C(=O)Oc3c(C)cc(C(=O)OCc4ccccc4)cc3C)c3cc4ccccc4cc3[n+](C)c2c1 [3-EtO-LEAE-Bz, (4-Benzyloxycarbonyl-2,6-dimethyl)phenyl 3-Ethoxy-5-methyl-benz[b]acridinium-12-carboxylate Fluorosulfonate] | 45 | 78 | 85 | 93 | 95 | 100 |
| ≈ 422 nm | 422 nm | 395-520 nm | – | COc1ccc2c(C(=O)Oc3c(C)cc(C(=O)OCc4ccccc4)cc3C)c3ccccc3[n+](C)c2c1 [3-MeO-DMAE-Bz, (4-Benzyloxycarbonyl-2,6-dimethyl)phenyl 3-Methoxy-10-methyl-acridinium-9-carboxylate Fluorosulfonate, reference compound] | 26 | 49 | 57 | 70 | 80 | 100 |
| ≈ 440 nm | 436-440 nm | 410-530 nm | 8-14 nm | Cc1cc(C(=O)OCc2ccccc2)cc(C)c1OC(=O)c1c2ccccc2[n+](C)c2ccc3ccccc3c12 [ABAC, (4-Benzyloxycarbonyl-2,6-dimethyl)phenyl 5-methyl-benz[a]acridinium-12-carboxylate methosulfate, reference compound] | 3 | 20 | 52 | 73 | 89 | 100 |
| ≈ 520 nm | 520 nm | 485-670 nm | – | CC(C)c1cc(C(=O)OCc2ccccc2)cc(C(C)C)c1OC(=O)c1c2ccccc2[n+](C)c2cc3ccccc3cc12 [DIP-LEAE-Bz, (4-Benzyloxycarbonyl-2,6-diisopropyl)phenyl 5-Methyl-benz[b]acridinium-12-carboxylate Fluorosulfonate] | 4 | 26 | 47 | 67 | 80 | 100 |
| ≈ 520 nm | 520 nm | 485-670 nm | – | COc1ccc(N(C(=O)c2c3ccccc3[n+](C)c3cc4ccccc4cc23)S(=O)(=O)c2cccc(C(=O)OCc3ccccc3)c2)cc1 [LEAC-Bz, N-(4-Methoxyphenyl)-N-[3-(benzyloxycarbonyl)phenylsulfonyl] 5-Methyl-benz[b]acridinium-12-carboxamide Fluorosulfonate] | 73 | 82 | 93 | 98 | 102 | 100 |
| ≈ 520 nm | 520-524 nm | 490-670 nm | – | Cc1cc(C(=O)OCc2ccccc2)cc(C)c1OC(=O)c1c2ccccc2[n+](C)c2cc3ccccc3cc12 [LEAE-Bz, (4-Benzyloxycarbonyl-2,6-dimethyl)phenyl 5-Methyl-benz[b]acridinium-12-carboxylate Fluorosulfonate] | 27 | 71 | 88 | 97 | 98 | 100 |
| ≈ 516 nm | 516 nm | 482-655 nm | – | Cc1cc(C(=O)OCc2ccccc2)cc(C)c1OC(=O)c1c2ccccc2[n+](CCCS(=O)(=O)[O-])c2cc3ccccc3cc12 [NSP-LEAE-Bz, (4-Benzyloxycarbonyl-2,6-dimethyl)phenyl 5-(3-Sulfopropyl)-benz[b]acridinium-12-carboxylate] | 14 | 72 | 91 | 96 | 95 | 100 |
